The target in this experiment is T1, ΔF508-CFTR (Homo sapiens, UniProt P13569, DEL508-508).
T1 construct: expressed in transfected cells
Briefly: Membrane potential optical assay (FRET voltage-sensor dyes, VIPR), identification of potentiator compounds. It is filed as cell-based. To be noted: Table 3, assay not given; for Emax: read-out: % Activity (% Efficacy, relative efficacy). The procedure, abridged:
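Potentiator screen measured membrane potential via FRET between CC2-DMPE donor and DiSBAC2(3), read on VIPR II. Compound went in with the first addition of chloride-free gluconate bath; cells were ΔF508-CFTR-expressing NIH3T3 mouse fibroblasts, temperature-corrected at 27 °C for 24 h.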

T1 sequence (P13569 with tags, fused parts or gaps DEL508-508): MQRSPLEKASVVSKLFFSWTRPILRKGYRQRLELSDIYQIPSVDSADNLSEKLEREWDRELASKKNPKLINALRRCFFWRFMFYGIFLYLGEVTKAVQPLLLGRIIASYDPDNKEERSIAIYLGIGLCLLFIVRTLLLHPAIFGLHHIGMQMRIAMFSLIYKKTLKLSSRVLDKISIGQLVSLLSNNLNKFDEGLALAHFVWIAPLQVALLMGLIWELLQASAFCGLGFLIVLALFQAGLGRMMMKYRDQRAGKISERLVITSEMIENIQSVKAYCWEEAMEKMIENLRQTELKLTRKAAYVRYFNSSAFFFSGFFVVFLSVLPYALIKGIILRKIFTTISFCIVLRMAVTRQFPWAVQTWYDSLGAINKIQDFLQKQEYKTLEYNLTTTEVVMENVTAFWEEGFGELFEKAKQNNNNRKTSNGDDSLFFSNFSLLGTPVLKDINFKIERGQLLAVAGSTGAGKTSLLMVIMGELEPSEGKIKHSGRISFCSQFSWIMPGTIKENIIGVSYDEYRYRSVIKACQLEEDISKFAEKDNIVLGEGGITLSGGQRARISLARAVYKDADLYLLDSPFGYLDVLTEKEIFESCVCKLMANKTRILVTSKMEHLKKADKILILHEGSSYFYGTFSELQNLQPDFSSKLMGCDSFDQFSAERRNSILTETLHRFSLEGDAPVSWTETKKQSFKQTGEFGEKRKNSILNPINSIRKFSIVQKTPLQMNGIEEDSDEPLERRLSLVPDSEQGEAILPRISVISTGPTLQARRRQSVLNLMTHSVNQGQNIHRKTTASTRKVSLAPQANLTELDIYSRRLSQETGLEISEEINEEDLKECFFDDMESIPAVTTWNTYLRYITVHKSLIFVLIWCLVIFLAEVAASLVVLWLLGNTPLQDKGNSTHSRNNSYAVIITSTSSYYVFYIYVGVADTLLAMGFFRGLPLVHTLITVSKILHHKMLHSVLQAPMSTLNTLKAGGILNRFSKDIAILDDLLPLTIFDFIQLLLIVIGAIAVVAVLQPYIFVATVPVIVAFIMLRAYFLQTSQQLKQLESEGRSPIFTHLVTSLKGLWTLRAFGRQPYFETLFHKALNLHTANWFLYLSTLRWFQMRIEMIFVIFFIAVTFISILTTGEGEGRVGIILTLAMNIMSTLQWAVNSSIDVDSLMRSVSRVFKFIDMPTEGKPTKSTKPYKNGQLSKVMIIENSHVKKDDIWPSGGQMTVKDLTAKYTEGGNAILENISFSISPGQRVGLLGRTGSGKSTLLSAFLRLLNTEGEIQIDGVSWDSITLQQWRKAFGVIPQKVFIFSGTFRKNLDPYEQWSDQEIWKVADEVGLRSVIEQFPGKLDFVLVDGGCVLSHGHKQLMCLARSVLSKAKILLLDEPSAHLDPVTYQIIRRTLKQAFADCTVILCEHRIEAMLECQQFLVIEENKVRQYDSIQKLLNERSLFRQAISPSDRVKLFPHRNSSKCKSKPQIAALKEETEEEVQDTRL

With `O=C(Nc1ccc2c(C(F)(F)F)c[nH]c2c1)c1c[nH]c2ccccc2c1=O` [Compound 545, 4-oxo-N-[3-(trifluoromethyl)-1H-indol-6-yl]-1H-quinoline-3-carboxamide], the Emax is above 100%.

Take `Cc1cccc2[nH]cc(C(=O)Nc3ccc(N4CCC(C)C4)cc3C(F)(F)F)c(=O)c12` (centres unmarked) [Compound 546, 5-methyl-N-[4-(3-methylpyrrolidin-1-yl)-2-(trifluoromethyl)phenyl]-4-oxo-1H-quinoline-3-carboxamide]: the Emax lay in the range of 25 to 100%.

Turning to `Cc1cccc2[nH]cc(C(=O)Nc3ccc(OC(C)C)cc3C(F)(F)F)c(=O)c12` [Compound 547, N-[4-isopropoxy-2-(trifluoromethyl)phenyl]-5-methyl-4-oxo-1H-quinoline-3-carboxamide], the Emax was above 100%.

For the compound `CC(C)(C)c1cc(C(C)(C)C)c(NC(=O)c2c[nH]c3cc(C#N)ccc3c2=O)cc1O` [Compound 548, 7-cyano-N-(5-hydroxy-2,4-ditert-butyl-phenyl)-4-oxo-1H-quinoline-3-carboxamide], the Emax lay within 25 to 100%.

On to `O=C(Nc1cccc(-c2cccs2)c1)c1c[nH]c2ccccc2c1=O` [Compound 549, 4-oxo-N-[3-(2-thienyl)phenyl]-1H-quinoline-3-carboxamide], for which the Emax is 25 to 100%.

As for `COC(=O)[C@@H]1C[C@@H](OC(C)(C)C)CN1c1ccc(NC(=O)c2c[nH]c3ccccc3c2=O)c(C(F)(F)F)c1` [Compound 550, (2S,4R)-methyl 4-tert-butoxy-1-(4-(4-oxo-1,4-dihydroquinoline-3-carboxamido)-3-(trifluoromethyl)phenyl)pyrrolidine-2-carboxylate], the Emax fell in the range of 25 to 100%.

On to `O=C(Nc1cc(O)c2ccccc2c1)c1c[nH]c2ccccc2c1=O` [Compound 551, N-(4-hydroxy-2-naphthyl)-4-oxo-1H-quinoline-3-carboxamide], for which the concentration giving a half-maximal response (EC50) is below 10 µM and the Emax is 25 to 100%.

With `CC(C)(C)c1cc(C(C)(C)C)c(NC(=O)c2c[nH]c3ccc(Br)cc3c2=O)cc1O` [Compound 553, 6-bromo-N-(5-hydroxy-2,4-ditert-butyl-phenyl)-4-oxo-1H-quinoline-3-carboxamide], the Emax is 25 to 100%.

`CC(C)(C)c1c[nH]c2cc(NC(=O)c3c[nH]c4ccc(F)cc4c3=O)ccc12` [Compound 554, 6-fluoro-4-oxo-N-(3-tert-butyl-1H-indol-6-yl)-1H-quinoline-3-carboxamide]: the Emax lay within 25 to 100%.

In the case of `CC1CCN(c2ccc(NC(=O)c3c[nH]c4ccccc4c3=O)c(C(F)(F)F)c2)C1` (centres unmarked) [Compound 555, N-[4-(3-methylpyrrolidin-1-yl)-2-(trifluoromethyl)phenyl]-4-oxo-1H-quinoline-3-carboxamide], the Emax was in the range of 25 to 100%.

On to `CC(C)(C)C(=O)Nc1ccc(NC(=O)c2c[nH]c3ccccc3c2=O)c(C(F)(F)F)c1` [Compound 556, N-[4-(2,2-dimethylpropanoylamino)-2-(trifluoromethyl)phenyl]-4-oxo-1H-quinoline-3-carboxamide], for which the Emax lay within 25 to 100%.

Consider `CC(C)c1ccc(NC(=O)c2c[nH]c3ccc(F)cc3c2=O)c(C(F)(F)F)c1` [Compound 557, 6-fluoro-N-[4-isopropyl-2-(trifluoromethyl)phenyl]-4-oxo-1H-quinoline-3-carboxamide], for which the Emax fell in the range of 25 to 100%.

As to `CC(C)(C)c1cc2cc[nH]c2cc1NC(=O)c1c[nH]c2cc(C#N)ccc2c1=O` [Compound 558, 7-cyano-4-oxo-N-(5-tert-butyl-1H-indol-6-yl)-1H-quinoline-3-carboxamide], the Emax lay in the range of 25 to 100%.

`CC(C)(C)c1cc2cc[nH]c2cc1NC(=O)c1c[nH]c2c(C(F)(F)F)cccc2c1=O` [Compound 559, 4-oxo-N-(5-tert-butyl-1H-indol-6-yl)-8-(trifluoromethyl)-1H-quinoline-3-carboxamide]: the Emax was below 25%.

With `COc1cc(NC(=O)c2c[nH]c3ccccc3c2=O)ccc1-n1c(C)ccc1C` [Compound 560, N-[4-(2,5-dimethylpyrrol-1-yl)-3-methoxy-phenyl]-4-oxo-1H-quinoline-3-carboxamide], the Emax is 25 to 100%.

On to `CC(C)(C)c1cc(F)c(NC(=O)c2c[nH]c3ccc(Cl)cc3c2=O)cc1O` [Compound 561, 6-chloro-N-(2-fluoro-5-hydroxy-4-tert-butyl-phenyl)-4-oxo-1H-quinoline-3-carboxamide], for which the Emax was in the range of 25 to 100%.

For `O=C(Nc1ccc(N2CCCC2)cc1C(F)(F)F)c1c[nH]c2ccc(F)cc2c1=O` [Compound 562, 6-fluoro-4-oxo-N-[4-pyrrolidin-1-yl-2-(trifluoromethyl)phenyl]-1H-quinoline-3-carboxamide], the Emax is 25 to 100%.

Turning to `O=C(Nc1cc(O)cc(C(F)(F)F)c1)c1c[nH]c2ccccc2c1=O` [Compound 563, N-[3-hydroxy-5-(trifluoromethyl)phenyl]-4-oxo-1H-quinoline-3-carboxamide], the Emax lay within 25 to 100%.

Consider `O=C(Nc1ccc(C2CCCCC2)c(O)c1)c1c[nH]c2ccccc2c1=O` [Compound 564, N-(4-cyclohexyl-3-hydroxy-phenyl)-4-oxo-1H-quinoline-3-carboxamide], for which the Emax lay within 25 to 100%.

Take `Cc1cccc2[nH]cc(C(=O)Nc3cc4[nH]ccc4cc3C(C)(C)C)c(=O)c12` [Compound 565, 5-methyl-4-oxo-N-(5-tert-butyl-1H-indol-6-yl)-1H-quinoline-3-carboxamide]: the Emax was in the range of 25 to 100%.

`COCCn1ccc2cc(C(F)(F)F)c(NC(=O)c3c[nH]c4ccc(F)cc4c3=O)cc21` [Compound 566, 6-fluoro-N-[1-(2-methoxyethyl)-5-(trifluoromethyl)indol-6-yl]-4-oxo-1H-quinoline-3-carboxamide]: the Emax is 25 to 100%.

`O=C(Nc1ccc(N2CCC[C@H]2C(=O)O)cc1C(F)(F)F)c1c[nH]c2ccccc2c1=O` [Compound 567, (S)-1-[4-[(4-oxo-1H-quinolin-3-yl)carbonylamino]-3-(trifluoromethyl)phenyl]pyrrolidine-2-carboxylic acid]: the Emax fell in the range of 25 to 100%.

Turning to `Cc1ccc2[nH]cc(C(=O)Nc3ccc(N4[C@H](C)CC[C@H]4C)cc3C(F)(F)F)c(=O)c2c1` [Compound 569, N-(4-((2R,5R)-2,5-dimethylpyrrolidin-1-yl)-2-(trifluoromethyl)phenyl)-6-methyl-4-oxo-1,4-dihydroquinoline-3-carboxamide], the Emax lay within 25 to 100%.

Turning to `CC(C)c1cc(C(F)(F)F)c(NC(=O)c2c[nH]c3ccccc3c2=O)cc1OCc1ccccc1` [Compound 570, N-[5-benzyloxy-4-isopropyl-2-(trifluoromethyl)phenyl]-4-oxo-1H-quinoline-3-carboxamide], the Emax was in the range of 25 to 100%.

With `COc1nc(NC(=O)c2c[nH]c3ccccc3c2=O)ccc1C(F)(F)F` [Compound 571, N-[6-methoxy-5-(trifluoromethyl)-2-pyridyl]-4-oxo-1H-quinoline-3-carboxamide], the Emax was below 25%.

On to `C[C@@H]1CCCN1c1ccc(NC(=O)c2c[nH]c3ccccc3c2=O)c(C(F)(F)F)c1` [Compound 572, (R)-N-(4-(2-methylpyrrolidin-1-yl)-2-(trifluoromethyl)phenyl)-4-oxo-1,4-dihydroquinoline-3-carboxamide], for which the concentration giving a half-maximal response (EC50) is below 10 µM and the Emax is 25 to 100%.

Take `CC(C)c1ccc(NC(=O)c2c[nH]c3c(F)cccc3c2=O)c(C(F)(F)F)c1` [Compound 573, 8-fluoro-N-[4-isopropyl-2-(trifluoromethyl)phenyl]-4-oxo-1H-quinoline-3-carboxamide]: the Emax fell in the range of 25 to 100%.

In the case of `O=C(Nc1cc(O)cc(C(F)(F)F)c1)c1c[nH]c2ccc(F)cc2c1=O` [Compound 574, 6-fluoro-N-[3-hydroxy-5-(trifluoromethyl)phenyl]-4-oxo-1H-quinoline-3-carboxamide], the Emax was 25 to 100%.

On to `CC(C)c1ccc(NC(=O)c2c[nH]c3ccccc3c2=O)cc1O` [Compound 575, N-(3-hydroxy-4-isopropyl-phenyl)-4-oxo-1H-quinoline-3-carboxamide], for which the Emax was 25 to 100%.

Regarding `Cc1ccc2c(=O)c(C(=O)Nc3cc4[nH]ccc4cc3C(F)(F)F)c[nH]c2c1` [Compound 576, 7-methyl-4-oxo-N-[5-(trifluoromethyl)-1H-indol-6-yl]-1H-quinoline-3-carboxamide], the Emax lay within 25 to 100%.

In the case of `Cc1ccc(C(F)(F)F)cc1NC(=O)c1c[nH]c2ccccc2c1=O` [Compound 577, N-[2-methyl-5-(trifluoromethyl)phenyl]-4-oxo-1H-quinoline-3-carboxamide], the Emax fell in the range of 25 to 100%.

As to `Cc1cccc2[nH]cc(C(=O)Nc3ccc(N4CCC(C)(C)C4)cc3C(F)(F)F)c(=O)c12` [Compound 578, N-[4-(3,3-dimethylpyrrolidin-1-yl)-2-(trifluoromethyl)phenyl]-5-methyl-4-oxo-1H-quinoline-3-carboxamide], the Emax fell in the range of 25 to 100%.

With `O=C(Nc1ccc(OC(F)(F)F)c(N2CCCC2)c1)c1c[nH]c2ccccc2c1=O` [Compound 579, 4-oxo-N-[3-pyrrolidin-1-yl-4-(trifluoromethoxy)phenyl]-1H-quinoline-3-carboxamide], the Emax was 25 to 100%.

Turning to `CC(C)(C)c1cc(C(C)(C)C)c(NC(=O)c2c[nH]c3c(C(F)(F)F)cccc3c2=O)cc1O` [Compound 580, N-(5-hydroxy-2,4-ditert-butyl-phenyl)-4-oxo-8-(trifluoromethyl)-1H-quinoline-3-carboxamide], the Emax was below 25%.

Turning to `Cc1cccc2[nH]cc(C(=O)Nc3ccc(N4CCC[C@@H]4C)nc3C(F)(F)F)c(=O)c12` [Compound 581, (S)-5-methyl-N-(6-(2-methylpyrrolidin-1-yl)-2-(trifluoromethyl)pyridin-3-yl)-4-oxo-1,4-dihydroquinoline-3-carboxamide], the Emax was 25 to 100%.

For the compound `Cc1cccc2[nH]cc(C(=O)Nc3ccc(N4C[C@@H]5CC[C@H]4C5)cc3C(F)(F)F)c(=O)c12` [Compound 582, N-(4-((1S,4R)-2-azabicyclo[2.2.1]heptan-2-yl)-2-(trifluoromethyl)phenyl)-5-methyl-4-oxo-1,4-dihydroquinoline-3-carboxamide], the Emax was in the range of 25 to 100%.

For orientation: EC50 means the midpoint of the concentration-response curve.

These data come from patent US8802700B2 (Vertex Pharmaceuticals Incorporated, priority 2010, dated 2014).
